These results are taken from patent publication US10414811B2, “Protease-resistant lipidated GLP-1 analogs” (MEDIMMUNE LIMITED, priority 2015, dated 2019).

Holding throughout (format): cell-based
In assay [1] the target is T1, human glucagon receptor (GCGR) (Homo sapiens, UniProt P47871).
T1 construct: expressed in transfected cells
Put plainly: cAMP assay, human GCGR cells. The conditions noted are these: cAMP assay. The method, boiled down: (§1)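 Peptide-stimulated cAMP measured by two-step HTRF after a 30 min room-temperature incubation with receptor-expressing cells (hGLP-1R, hGIPR at 1×10^5 cells/ml; hGCGR at 2×10^5 cells/ml). Duplicate dilutions; EC50 from 4-parameter logistic fit of % Delta F.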
Background: Cyclic AMP is a second messenger, typically raised through Gs and lowered through Gi signalling.

Assay [2] deals with T2, human GLP-1 receptor (GLP-1R) (Homo sapiens, UniProt P43220).
T2 construct: expressed in transfected cells
As to the kind of experiment: cAMP assay, human GLP-1R cells. In outline: as §1

The target of assay [3] is T3, human glucose-dependent insulinotropic peptide receptor (GIPR) (Homo sapiens, UniProt P48546).
T3 construct: expressed in transfected cells
T3 sequence (P48546 22-466): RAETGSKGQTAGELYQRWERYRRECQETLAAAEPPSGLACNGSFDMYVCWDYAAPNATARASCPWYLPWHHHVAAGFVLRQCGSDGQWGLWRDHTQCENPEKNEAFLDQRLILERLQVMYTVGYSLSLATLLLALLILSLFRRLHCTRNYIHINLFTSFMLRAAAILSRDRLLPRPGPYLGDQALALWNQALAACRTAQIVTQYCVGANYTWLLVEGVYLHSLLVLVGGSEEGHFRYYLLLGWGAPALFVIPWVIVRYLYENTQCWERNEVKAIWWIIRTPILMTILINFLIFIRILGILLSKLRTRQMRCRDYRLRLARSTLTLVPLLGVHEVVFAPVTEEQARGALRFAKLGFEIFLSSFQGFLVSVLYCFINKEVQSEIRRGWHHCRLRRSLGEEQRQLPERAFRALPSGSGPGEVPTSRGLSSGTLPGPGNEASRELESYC
As to the kind of experiment: cAMP assay, human GIPR cells. The note with it: cAMP assay. In outline:
as §1

Where [4] appears, read: first determination (n1), read-out: Primary assay EC50 Gluc-R (n1).
Setting [5] is: second determination (n2), read-out: Primary assay EC50 Gluc-R (n2).
Where [6] appears, read: cAMP assay, first determination (n1), read-out: Primary assay EC50 GLP-1R n1.
The mark [7] stands for this setting: cAMP assay, second determination (n2), read-out: Primary assay EC50 GLP-1R n2.
[8] abbreviates: mean of n1 and n2, read-out: Mean pM GLP-1R.
Setting [9] is: first determination (n1), read-out: Primary assay EC50 GIP-R (n1).
Setting [10] is: second determination (n2), read-out: Primary assay EC50 GIP-R (n2).

Where two headings read alike, the source gives them in different places. Numbered stars: 1 amine (or outer) side, 2 acyl side, 3 side chain; on linkers, the order of the positions; unused ones are H or OH. Square brackets hold non-standard residues; d marks the D form. Side chains are listed from the residue outwards. Peptide text beside a SMILES is read from it. * marks the point of attachment. C18 diacid = O=C(O)CCCCCCCCCCCCCCCCC(=O)*; γGlu = O=C(O)[C@H](CCC(=O)[*:2])N[*:1]; αMeF = C[C@](N)(Cc1ccccc1)C(=O)O; αMeK = C[C@](N)(CCCCN)C(=O)O; αMeS = C[C@](N)(CO)C(=O)O; AEEA = NCCOCCOCC(=O)O; Aib = CC(C)(N)C(=O)O

T2 sequence (P43220 24-463): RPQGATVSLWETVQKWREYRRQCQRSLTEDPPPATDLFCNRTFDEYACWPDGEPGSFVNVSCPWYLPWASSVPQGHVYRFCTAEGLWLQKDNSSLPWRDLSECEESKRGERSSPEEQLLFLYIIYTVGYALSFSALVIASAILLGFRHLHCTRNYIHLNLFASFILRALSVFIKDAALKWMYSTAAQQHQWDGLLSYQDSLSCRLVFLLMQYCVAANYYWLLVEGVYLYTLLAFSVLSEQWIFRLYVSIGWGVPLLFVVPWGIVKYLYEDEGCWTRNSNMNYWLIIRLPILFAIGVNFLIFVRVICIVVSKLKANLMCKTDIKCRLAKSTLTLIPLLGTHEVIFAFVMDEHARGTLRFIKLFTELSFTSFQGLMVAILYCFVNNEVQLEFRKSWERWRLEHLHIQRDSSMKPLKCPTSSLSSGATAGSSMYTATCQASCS
T1 sequence (P47871 26-477): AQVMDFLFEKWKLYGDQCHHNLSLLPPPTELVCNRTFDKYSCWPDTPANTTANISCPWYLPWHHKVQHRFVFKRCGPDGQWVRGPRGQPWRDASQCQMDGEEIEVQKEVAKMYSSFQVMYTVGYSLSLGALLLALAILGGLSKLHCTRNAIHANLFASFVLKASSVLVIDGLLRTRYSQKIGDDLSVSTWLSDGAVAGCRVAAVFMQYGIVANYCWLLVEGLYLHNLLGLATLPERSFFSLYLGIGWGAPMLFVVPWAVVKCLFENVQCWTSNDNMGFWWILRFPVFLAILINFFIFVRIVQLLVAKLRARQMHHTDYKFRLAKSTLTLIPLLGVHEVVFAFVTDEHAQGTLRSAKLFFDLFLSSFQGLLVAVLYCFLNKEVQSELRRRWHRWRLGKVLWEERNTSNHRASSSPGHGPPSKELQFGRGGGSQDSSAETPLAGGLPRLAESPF

`CC[C@H](C)[C@H](NC(=O)[C@](C)(Cc1ccccc1)NC(=O)[C@H](CCC(=O)O)NC(=O)[C@](C)(CCCCN)NC(=O)[C@H](C)NC(=O)[C@H](C)NC(=O)[C@H](CCC(=O)O)NC(=O)CNC(=O)[C@H](CCCCNC(=O)COCCOCCNC(=O)COCCOCCNC(=O)CC[C@H](NC(=O)CCCCCCCCCCCCCCCCC(=O)O)C(=O)O)NC(=O)[C@H](CC(C)C)NC(=O)[C@](C)(Cc1ccccc1)NC(=O)[C@H](CO)NC(=O)[C@](C)(CO)NC(=O)[C@@H](NC(=O)[C@H](CC(=O)O)NC(=O)[C@H](CO)NC(=O)[C@@H](NC(=O)[C@](C)(Cc1ccccc1)NC(=O)[C@H](CO)NC(=O)CNC(=O)[C@H](CCC(=O)O)NC(=O)C(C)(C)NC(=O)[C@@H](N)Cc1c[nH]cn1)[C@@H](C)O)C(C)C)C(=O)N[C@@H](C)C(=O)N[C@@](C)(Cc1ccccc1)C(=O)N[C@H](C(=O)N[C@H](C(=O)N[C@@](C)(CCCCN)C(=O)NCC(=O)NCC(N)=O)C(C)C)C(C)C` [compound 114] (H-H[Aib]EGS[αMeF]TSDV[αMeS]S[αMeF]LK([AEEA-AEEA-γGlu-C18 diacid])GEAA[αMeK]E[αMeF]IA[αMeF]VV[αMeK]GG-NH2; N-terminus assumed): the EC50 in assay [1] (setting [4]) is ≥ 25 nM; in assay [1] (setting [5]), ≥ 25.4 nM; in assay [2] (setting [6]) it was 550 pM; in assay [2] (setting [7]), 458 pM; in assay [2] (setting [8]) it was 503 pM; in assay [3] (setting [9]) it was ≥ 25 nM. The EC50 in assay [3] (setting [10]) is ≥ 25.4 nM.
`CC[C@H](C)[C@H](NC(=O)[C@](C)(Cc1ccccc1)NC(=O)[C@H](CCC(=O)O)NC(=O)[C@](C)(CCCCN)NC(=O)[C@H](C)NC(=O)[C@H](C)NC(=O)[C@H](CCC(=O)O)NC(=O)CNC(=O)[C@H](CCC(=O)O)NC(=O)[C@H](CC(C)C)NC(=O)[C@](C)(Cc1ccccc1)NC(=O)[C@H](CO)NC(=O)[C@](C)(CO)NC(=O)[C@@H](NC(=O)[C@H](CCCCNC(=O)COCCOCCNC(=O)COCCOCCNC(=O)CC[C@H](NC(=O)CCCCCCCCCCCCCCCCC(=O)O)C(=O)O)NC(=O)[C@H](CO)NC(=O)[C@@H](NC(=O)[C@](C)(Cc1ccccc1)NC(=O)[C@H](CO)NC(=O)CNC(=O)[C@H](CCC(=O)O)NC(=O)C(C)(C)NC(=O)[C@@H](N)Cc1c[nH]cn1)[C@@H](C)O)C(C)C)C(=O)N[C@@H](C)C(=O)N[C@@](C)(Cc1ccccc1)C(=O)N[C@H](C(=O)N[C@H](C(=O)N[C@@](C)(CCCCN)C(=O)NCC(=O)NCC(N)=O)C(C)C)C(C)C` [compound 120] (H-H[Aib]EGS[αMeF]TSK([AEEA-AEEA-γGlu-C18 diacid])V[αMeS]S[αMeF]LEGEAA[αMeK]E[αMeF]IA[αMeF]VV[αMeK]GG-NH2): the EC50 is ≥ 25 nM in assay [1] (setting [4]); ≥ 25.3 nM in assay [1] (setting [5]); 4100 pM in assay [2] (setting [6]); 3130 pM in assay [2] (setting [7]); 3640 pM in assay [2] (setting [8]); ≥ 25 nM in assay [3] (setting [9]). For the same compound, the EC50 in assay [3] (setting [10]) was ≥ 25.3 nM.
For the compound `CC[C@H](C)[C@H](NC(=O)[C@](C)(Cc1ccccc1)NC(=O)[C@H](CCC(=O)O)NC(=O)[C@](C)(CCCCN)NC(=O)[C@H](C)NC(=O)[C@H](C)NC(=O)[C@H](CCC(=O)O)NC(=O)CNC(=O)[C@H](CCC(=O)O)NC(=O)[C@H](CC(C)C)NC(=O)[C@](C)(Cc1ccccc1)NC(=O)[C@H](CO)NC(=O)[C@](C)(CO)NC(=O)[C@@H](NC(=O)[C@H](CC(=O)O)NC(=O)[C@H](CO)NC(=O)[C@@H](NC(=O)[C@H](CCCCNC(=O)COCCOCCNC(=O)COCCOCCNC(=O)CC[C@H](NC(=O)CCCCCCCCCCCCCCCCC(=O)O)C(=O)O)NC(=O)[C@H](CO)NC(=O)CNC(=O)[C@H](CCC(=O)O)NC(=O)C(C)(C)NC(=O)[C@@H](N)Cc1c[nH]cn1)[C@@H](C)O)C(C)C)C(=O)N[C@@H](C)C(=O)N[C@@](C)(Cc1ccccc1)C(=O)N[C@H](C(=O)N[C@H](C(=O)N[C@@](C)(CCCCN)C(=O)NCC(=O)NCC(N)=O)C(C)C)C(C)C` [compound 123], the EC50 in assay [1] (setting [4]) is ≥ 26 nM; in assay [1] (setting [5]) it was ≥ 25.6 nM; in assay [2] (setting [6]), 4900 pM; in assay [2] (setting [7]), 4430 pM; in assay [2] (setting [8]), 4660 pM; in assay [3] (setting [9]), ≥ 26 nM. Further, the EC50 in assay [3] (setting [10]) was ≥ 25.6 nM.
Turning to `CC[C@H](C)[C@H](NC(=O)[C@](C)(Cc1ccccc1)NC(=O)[C@H](CCC(=O)O)NC(=O)[C@](C)(CCCCN)NC(=O)[C@H](C)NC(=O)[C@H](C)NC(=O)[C@H](CCC(=O)O)NC(=O)CNC(=O)[C@H](CCC(=O)O)NC(=O)[C@H](CC(C)C)NC(=O)[C@](C)(Cc1ccccc1)NC(=O)[C@H](CO)NC(=O)[C@](C)(CO)NC(=O)[C@@H](NC(=O)[C@H](CC(=O)O)NC(=O)[C@H](CO)NC(=O)[C@@H](NC(=O)[C@](C)(Cc1ccccc1)NC(=O)[C@H](CCCCNC(=O)COCCOCCNC(=O)COCCOCCNC(=O)CC[C@H](NC(=O)CCCCCCCCCCCCCCCCC(=O)O)C(=O)O)NC(=O)CNC(=O)[C@H](CCC(=O)O)NC(=O)C(C)(C)NC(=O)[C@@H](N)Cc1c[nH]cn1)[C@@H](C)O)C(C)C)C(=O)N[C@@H](C)C(=O)N[C@@](C)(Cc1ccccc1)C(=O)N[C@H](C(=O)N[C@H](C(=O)N[C@@](C)(CCCCN)C(=O)NCC(=O)NCC(N)=O)C(C)C)C(C)C` [compound 124] (H-H[Aib]EGK([AEEA-AEEA-γGlu-C18 diacid])[αMeF]TSDV[αMeS]S[αMeF]LEGEAA[αMeK]E[αMeF]IA[αMeF]VV[αMeK]GG-NH2; N-terminus assumed), the EC50 in assay [1] (setting [4]) is ≥ 25 nM; in assay [1] (setting [5]), ≥ 25.1 nM; in assay [2] (setting [6]) it was ≥ 25000 pM; in assay [2] (setting [7]), ≥ 25100 pM; in assay [2] (setting [8]), ≥ 25100 pM; in assay [3] (setting [9]), ≥ 25 nM. Moreover, the EC50 in assay [3] (setting [10]) was ≥ 25.1 nM.
With `CC[C@H](C)[C@H](NC(=O)[C@](C)(Cc1ccccc1)NC(=O)[C@H](CCC(=O)O)NC(=O)[C@](C)(CCCCN)NC(=O)[C@H](C)NC(=O)[C@H](C)NC(=O)[C@H](CCC(=O)O)NC(=O)CNC(=O)[C@H](CCC(=O)O)NC(=O)[C@H](CC(C)C)NC(=O)[C@](C)(Cc1ccccc1)NC(=O)[C@H](CO)NC(=O)[C@](C)(CO)NC(=O)[C@@H](NC(=O)[C@H](CC(=O)O)NC(=O)[C@H](CO)NC(=O)[C@@H](NC(=O)[C@](C)(Cc1ccccc1)NC(=O)[C@H](CO)NC(=O)[C@H](CCCCNC(=O)COCCOCCNC(=O)COCCOCCNC(=O)CC[C@H](NC(=O)CCCCCCCCCCCCCCCCC(=O)O)C(=O)O)NC(=O)[C@H](CCC(=O)O)NC(=O)C(C)(C)NC(=O)[C@@H](N)Cc1c[nH]cn1)[C@@H](C)O)C(C)C)C(=O)N[C@@H](C)C(=O)N[C@@](C)(Cc1ccccc1)C(=O)N[C@H](C(=O)N[C@H](C(=O)N[C@@](C)(CCCCN)C(=O)NCC(=O)NCC(N)=O)C(C)C)C(C)C` [compound 125] (H-H[Aib]EK([AEEA-AEEA-γGlu-C18 diacid])S[αMeF]TSDV[αMeS]S[αMeF]LEGEAA[αMeK]E[αMeF]IA[αMeF]VV[αMeK]GG-NH2; N-terminus assumed), the EC50 in assay [1] (setting [4]) is ≥ 25 nM; in assay [1] (setting [5]), ≥ 24.9 nM; in assay [2] (setting [6]), ≥ 25000 pM; in assay [2] (setting [7]), ≥ 24900 pM; in assay [3] (setting [9]), ≥ 25 nM; in assay [3] (setting [10]) it was ≥ 24.9 nM.
In the case of `CC[C@H](C)[C@H](NC(=O)[C@](C)(Cc1ccccc1)NC(=O)[C@H](CCC(=O)O)NC(=O)[C@](C)(CCCCN)NC(=O)[C@H](C)NC(=O)[C@H](C)NC(=O)[C@H](CCC(=O)O)NC(=O)CNC(=O)[C@H](CCC(=O)O)NC(=O)[C@H](CC(C)C)NC(=O)[C@](C)(Cc1ccccc1)NC(=O)[C@H](CO)NC(=O)[C@](C)(CO)NC(=O)[C@@H](NC(=O)[C@H](CC(=O)O)NC(=O)[C@H](CO)NC(=O)[C@@H](NC(=O)[C@](C)(Cc1ccccc1)NC(=O)[C@H](CO)NC(=O)CNC(=O)[C@H](CCCCNC(=O)COCCOCCNC(=O)COCCOCCNC(=O)CC[C@H](NC(=O)CCCCCCCCCCCCCCCCC(=O)O)C(=O)O)NC(=O)C(C)(C)NC(=O)[C@@H](N)Cc1c[nH]cn1)[C@@H](C)O)C(C)C)C(=O)N[C@@H](C)C(=O)N[C@@](C)(Cc1ccccc1)C(=O)N[C@H](C(=O)N[C@H](C(=O)N[C@@](C)(CCCCN)C(=O)NCC(=O)NCC(N)=O)C(C)C)C(C)C` [compound 126] (H-H[Aib]K([AEEA-AEEA-γGlu-C18 diacid])GS[αMeF]TSDV[αMeS]S[αMeF]LEGEAA[αMeK]E[αMeF]IA[αMeF]VV[αMeK]GG-NH2; N-terminus assumed), the EC50 was ≥ 25 nM in assay [1] (setting [4]); ≥ 25.4 nM in assay [1] (setting [5]); ≥ 25000 pM in assay [2] (setting [6]); ≥ 25400 pM in assay [2] (setting [7]); ≥ 25400 pM in assay [2] (setting [8]); ≥ 25 nM in assay [3] (setting [9]). Also, the EC50 in assay [3] (setting [10]) was ≥ 25.4 nM.
